Source: patent publication US4347319A, “Microbiological epoxidation process” (priority 1980, dated 1982)
Read-outs that look alike come from different tables or passages of the source.

Experiments:
[1] = tested on: Methylomonas methanica (CRL M4P) NRRL B-11,205; experiment: Oxidation by washed cell suspensions of methane-grown cells; assay type: cell-based
Method in brief: (§1)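 First, strains were cultured aerobically on methane at 30 °C until turbid, then pelleted and washed in phosphate buffer (0.15 M, pH 7.0). Next, 2 mg cell portions were sealed under substrate plus oxygen (1:1) and shaken at 30 °C. Finally, withdrawn samples were analysed by gas chromatography.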

[2] = tested on: Methylomonas streptobacterium (CRL 17 PM3) NRRL B-11,208; experiment: as above; assay type: cell-based
Method in brief: as §1

[3] = tested on: Methylosinus sporium (CRL 16 PM2) NRRL B-11,203; experiment: as above; assay type: cell-based
Method in brief: as §1

[4] = tested on: Methylococcus capsulatus (CRL 25 PM13) NRRL B-11,221; experiment: as above; assay type: cell-based
Method in brief: as §1

[5] = tested on: Methylococcus minimus (CRL 24 PM12) NRRL B-11,220; experiment: as above; assay type: cell-based
Method in brief: as §1

[6] = tested on: Methylomonas agile (CRL 22 PM9) NRRL B-11,209; experiment: as above; assay type: cell-based
Method in brief: as §1

[7] = tested on: cell fractions of Methylobacterium sp. (CRL-26, NRRL B-11,222); experiment: Oxidation by cell fractions P(40), P(80), S(80); assay type: biochemical; conditions: for Conversion Rate: particulate P(40) fraction, n-propane to 2-propanol, n-butane to 2-butanol; for Oxidizing Activity (rate of oxidation) in cell fraction: propylene to propylene oxide, methane to methanol, 30° C.
Procedure: Cells were washed twice with 25 mM potassium phosphate buffer, pH 7.0 containing 5 mM MgCl2. Cells were suspended in the same buffer. The cell suspensions at 4° C. were disintegrated by a single passage through a French Pressure cell (15,000 lb./in.^2) and centrifuged at 5000×g. for 15 min. to remove unbroken bacteria. The supernatant solution (crude extract) was then centrifuged at 40,000×g. for 30 min., yielding particulate P(40) and soluble S(40) fractions. The S(40) fraction was subsequently centrifuged at 80,000×g. for 60 min., yielding particulate P(80) and soluble S(80) fractions. The particulate fractions [P(40) and P(80)] were suspended in 25 mM potassium phosphate buffer, pH 7.0, containing 5 mM MgCl2 and homogenized at 4° C.
The oxidation of methane and propylene by particulate [(P)40 and (P)80] fractions and soluble [S(80)] fraction was measured at 30° C. by estimating the production of methanol and propylene oxide, respectively. The reaction mixtures contained in […]: 150 mM potassium phosphate buffer, pH 7.0 containing 5 mM MgCl2 b, 0.6 ml; 10μ moles NADH, and cellular fraction.
Reaction mixtures were contained in 10 ml vials at 4° C. Vials were sealed with rubber caps. The gaseous phase in the vials was removed using vacuum and then was replaced with a gas mixture of methane or propylene and oxygen at a 1:1, v/v ratio. Oxidation of other gaseous n-alkanes and n-alkanes was examined as described above. For liquid substrates, 10 μl of substrate was used directly.
The products of epoxidation of n-alkenes and hydroxylation of n-alkanes were assayed by flame ionization gas chromatography using a stainless steel column (12'×1/8") packed with 10% Carbowax 20 M on 80/100 Chromosorb W and Porapak Q column. The column temperature was maintained isothermally at 120° C. The carrier gas flow rate was 30 ml/min. of helium. The various products were identified by retention time comparisons and co-chromatography with authentic standards.
Specific activities were expressed as μ moles of products formed per hour per mg. protein. Concentrations of protein in various fractions were determined by the method of Lowry et al., J. Biol. Chem., 193: 265-275 (1951).

[8] = tested on: Methylosinus trichosporium OB3b (NRRL B-11,196); experiment: Oxidation by cell suspensions of methane-grown cells; assay type: cell-based; conditions: methane-grown cell-suspension, pH 7.0
[9] = methane-grown washed cells, 30° C., methane to methanol, alkene to 1,2-epoxide

CCC(C)O (stereo not drawn) [2-Butanol]
Conversion Rate to Ketone, 2 hrs. [1]: 0.06 μmole/2 mg protein | Conversion Rate to Ketone, 20 hrs. [1]: 2 μmole/2 mg protein

C=CC=C [Butadiene]
Oxidative Conversion Rates [2, 9]: 2.6 μmole/hr/mg protein | Oxidative Conversion Rates [1, 9]: 1.0 μmole/hr/mg protein | Oxidative Conversion Rates [3, 9]: 2.5 μmole/hr/mg protein | Oxidative Conversion Rates [4, 9]: 2.5 μmole/hr/mg protein | Oxidative Conversion Rates [5, 9]: 3.0 μmole/hr/mg protein | Oxidative Conversion Rates [6, 9]: 2.0 μmole/hr/mg protein

CCCC [Butane]
Conversion Rate [7]: 0.61 μmoles/hr/2.0mg. of protein | Conversion Rate [2]: 1.2 μmoles/hr/^5 mg. protein | Conversion Rate to 1-Butanol ([8]; 3° C.): 0.3 μmoles/hr./mg./protein | Conversion Rate to 2-Butanol ([8]; 3° C.): 0.4 μmoles/hr./mg./protein | Conversion Rate to 2-Butanone ([8]; 3° C.): 0.1 μmoles/hr./mg./protein | Conversion Rate to n-butanol ([8]; 3° C.): 0.1 μmoles/hr./mg./protein

C [Methane]
Oxidizing Activity (rate of oxidation) in cell fraction ([7]; P(40)): 2.7 μ moles of products formed per | Oxidizing Activity (rate of oxidation) in cell fraction ([7]; P(80)): 2.8 μ moles of products formed per | Oxidizing Activity (rate of oxidation) in cell fraction ([7]; S(80)): 0 μ moles of products formed per | Oxidative Conversion Rates [2]: 1.1 | Oxidative Conversion Rates [1]: 2.3 | Oxidative Conversion Rates [3]: 1.0 | Oxidative Conversion Rates [4]: 2.1 | Oxidative Conversion Rates [5]: 2.3 | Oxidative Conversion Rates [6]: 0.6 | Conversion Rate to Methanol ([8]; 3° C.): 1.5 μmoles/hr./mg./protein

CCC [Propane]
Conversion Rate [7]: 1.0 μmoles/hr/2.0mg. of protein | Conversion Rate ([2]; growth substrate Methane, n-alkane to secondary alcohol): 1.6 μmoles/hr/^5 mg. protein | Conversion Rate to 2-Propanol ([8]; 3° C.): 0.6 μmoles/hr./mg./protein | Conversion Rate to Acetone ([8]; 3° C.): 0.2 μmoles/hr./mg./protein | Conversion Rate to Propanol ([8]; 3° C.): 0.1 μmoles/hr./mg./protein | Conversion Rate to 1-Propanol ([8]; 30° C.): 0.4 μmoles/hr./mg./protein

C=CC [Propylene]
Oxidizing Activity (rate of oxidation) in cell fraction ([7]; P(40)): 1.2 μ moles of products formed per | Oxidizing Activity (rate of oxidation) in cell fraction ([7]; P(80)): 1.1 μ moles of products formed per | Oxidizing Activity (rate of oxidation) in cell fraction ([7]; S(80)): 0 μ moles of products formed per | Oxidative Conversion Rates [2, 9]: 1.0 μmole/hr/mg protein | Oxidative Conversion Rates [1, 9]: 3.8 μmole/hr/mg protein | Oxidative Conversion Rates [3, 9]: 3.2 μmole/hr/mg protein | Oxidative Conversion Rates [4, 9]: 1.2 μmole/hr/mg protein | Oxidative Conversion Rates [5, 9]: 1.8 μmole/hr/mg protein | Oxidative Conversion Rates [6, 9]: 1.6 μmole/hr/mg protein
